In patent US4818770A, “Prevention of a plant disease by specific inhibition of fungal polyamine biosynthesis” (priority 1986, dated 1989):

System: U. phaseoli
Experiment: Bean rust severity after DFMO and polyamines alone or combined
Format: in vivo, Uromyces phaseoli
Settings: for Lesions per cm^2 / Lesions per leaf / Lesions per leaf, percent of control: postinoculation

## NCCCCN [Put, putrescine]
1 mM Put alone
  reduction of number of lesions: about one-third
Polyamine alone 0.01 mM
  Lesions per cm^2: 57 ± 2 per cm^2
  Lesions per leaf: 4013 ± 264 per leaf
  Lesions per leaf, percent of control: 98% of control
Polyamine alone 0.1 mM
  Lesions per cm^2: 54 ± 5 per cm^2
  Lesions per leaf: 3189 ± 478 per leaf
  Lesions per leaf, percent of control: 78% of control
Polyamine alone 1.0 mM
  Lesions per cm^2: 44 ± 9 per cm^2
  Lesions per leaf: 2698 ± 260 per leaf
  Lesions per leaf, percent of control: 66% of control

## NCCCCNCCCN [Spd, spermidine]
Polyamine alone 0.01 mM
  Lesions per cm^2: 56 ± 5 per cm^2
  Lesions per leaf: 3209 ± 360 per leaf
  Lesions per leaf, percent of control: 78% of control
Polyamine alone 0.1 mM
  Lesions per cm^2: 58 ± 6 per cm^2
  Lesions per leaf: 3416 ± 457 per leaf
  Lesions per leaf, percent of control: 83% of control
Polyamine alone 1.0 mM
  Lesions per cm^2: 50 ± 10 per cm^2
  Lesions per leaf: 3926 ± 358 per leaf
  Lesions per leaf, percent of control: 96% of control
